According to ChEMBL document CHEMBL4622979, “Non-rigid Diarylmethyl Analogs of Baloxavir as Cap-Dependent Endonuclease Inhibitors of Influenza Viruses” (J Med Chem, 2020):

Assays:
[1] = Cmax in CD1 mouse plasma assessed as (12aR)-12-[(S)-(3,4-Difluorophenyl)(phenyl)methyl]-7-hydroxy3,4,12,12a-tetrahydro-1H-[1,4]oxazino[3,4-c]pyrido[2,1-f ][1,2,4]triazine-6,8-dione level at 15 mg/kg, po administered as single dose by LC-MS/MS analysis; assay type: ADME, organism-based; set-up: dose 15 mg/kg, route oral; details: in vivo
[2] = Stability in simulated gastric fluid assessed as parent compound remaining at 1 uM measured after 4 hrs at pH 1.2 by LC-MS/MS analysis; assay type: physicochemical; details: read-out: Stability
[3] = Stability in simulated intestinal fluid assessed as parent compound remaining at 1 uM measured after 4 hrs at pH 1.2 by LC-MS/MS analysis; assay type: physicochemical; details: read-out: Stability
[4] = Oral bioavailability in CD1 mouse assessed as (12aR)-12-[(S)-(3,4-Difluorophenyl)(phenyl)methyl]-7-hydroxy3,4,12,12a-tetrahydro-1H-[1,4]oxazino[3,4-c]pyrido[2,1-f ][1,2,4]triazine-6,8-dione level at 15 mg/kg administered as single dose by LC-MS/MS analysis; assay type: ADME, organism-based; details: in vivo
[5] = AUClast in CD1 mouse plasma assessed as (12aR)-12-[(S)-(3,4-Difluorophenyl)(phenyl)methyl]-7-hydroxy3,4,12,12a-tetrahydro-1H-[1,4]oxazino[3,4-c]pyrido[2,1-f ][1,2,4]triazine-6,8-dione level at 15 mg/kg, po administered as single dose by LC-MS/MS analysis; assay type: ADME, organism-based; set-up: dose 15 mg/kg, route oral, time 0 - last; details: in vivo
[6] = Ratio of Cmax in CD1 mouse lung to plasma assessed as (12aR)-12-[(S)-(3,4-Difluorophenyl)(phenyl)methyl]-7-hydroxy3,4,12,12a-tetrahydro-1H-[1,4]oxazino[3,4-c]pyrido[2,1-f ][1,2,4]triazine-6,8-dione level at 15 mg/kg, po administered as single dose by LC-MS/MS analysis; assay type: ADME, organism-based; details: other tissue
[7] = Ratio of AUClast in CD1 mouse lung to plasma assessed as (12aR)-12-[(S)-(3,4-Difluorophenyl)(phenyl)methyl]-7-hydroxy3,4,12,12a-tetrahydro-1H-[1,4]oxazino[3,4-c]pyrido[2,1-f ][1,2,4]triazine-6,8-dione level at 15 mg/kg, po administered as single dose by LC-MS/MS analysis; assay type: ADME, organism-based; details: other tissue
[8] = Cmax in CD1 mouse lung assessed as (12aR)-12-[(S)-(3,4-Difluorophenyl)(phenyl)methyl]-7-hydroxy3,4,12,12a-tetrahydro-1H-[1,4]oxazino[3,4-c]pyrido[2,1-f ][1,2,4]triazine-6,8-dione level at 15 mg/kg, po administered as single dose by LC-MS/MS analysis; assay type: ADME, organism-based; set-up: dose 15 mg/kg, route oral; details: in vivo
[9] = AUClast in CD1 mouse lung assessed as (12aR)-12-[(S)-(3,4-Difluorophenyl)(phenyl)methyl]-7-hydroxy3,4,12,12a-tetrahydro-1H-[1,4]oxazino[3,4-c]pyrido[2,1-f ][1,2,4]triazine-6,8-dione level at 15 mg/kg, po administered as single dose by LC-MS/MS analysis; assay type: ADME, organism-based; details: in vivo
[10] = Ratio of AUClast in CD1 mouse lung to plasma assessed as (12aR)-12-[(R)-(3,4-Difluorophenyl)(phenyl)methyl]-7-hydroxy3,4,12,12a-tetrahydro-1H-[1,4]oxazino[3,4-c]pyrido[2,1-f ][1,2,4]-triazine-6,8-dione level at 15 mg/kg, po administered as single dose by LC-MS/MS analysis; assay type: ADME, organism-based; details: other tissue
[11] = Cmax in CD1 mouse plasma assessed as (12aR)-12-[(R)-(3,4-Difluorophenyl)(phenyl)methyl]-7-hydroxy3,4,12,12a-tetrahydro-1H-[1,4]oxazino[3,4-c]pyrido[2,1-f ][1,2,4]-triazine-6,8-dione level at 15 mg/kg, po administered as single dose by LC-MS/MS analysis; assay type: ADME, organism-based; set-up: dose 15 mg/kg, route oral; details: in vivo
[12] = Ratio of Cmax in CD1 mouse lung to plasma assessed as (12aR)-12-[(R)-(3,4-Difluorophenyl)(phenyl)methyl]-7-hydroxy3,4,12,12a-tetrahydro-1H-[1,4]oxazino[3,4-c]pyrido[2,1-f ][1,2,4]-triazine-6,8-dione level at 15 mg/kg, po administered as single dose by LC-MS/MS analysis; assay type: ADME, organism-based; details: other tissue
[13] = AUClast in CD1 mouse lung assessed as (12aR)-12-[(R)-(3,4-Difluorophenyl)(phenyl)methyl]-7-hydroxy3,4,12,12a-tetrahydro-1H-[1,4]oxazino[3,4-c]pyrido[2,1-f ][1,2,4]-triazine-6,8-dione level at 15 mg/kg, po administered as single dose by LC-MS/MS analysis; assay type: ADME, organism-based; details: in vivo
[14] = Oral bioavailability in CD1 mouse assessed as (12aR)-12-[(R)-(3,4-Difluorophenyl)(phenyl)methyl]-7-hydroxy3,4,12,12a-tetrahydro-1H-[1,4]oxazino[3,4-c]pyrido[2,1-f ][1,2,4]-triazine-6,8-dione level at 15 mg/kg administered as single dose by LC-MS/MS analysis; assay type: ADME, organism-based; details: in vivo
[15] = Cmax in CD1 mouse lung assessed as (12aR)-12-[(R)-(3,4-Difluorophenyl)(phenyl)methyl]-7-hydroxy3,4,12,12a-tetrahydro-1H-[1,4]oxazino[3,4-c]pyrido[2,1-f ][1,2,4]-triazine-6,8-dione level at 15 mg/kg, po administered as single dose by LC-MS/MS analysis; assay type: ADME, organism-based; set-up: dose 15 mg/kg, route oral; details: in vivo
[16] = AUClast in CD1 mouse plasma assessed as (12aR)-12-[(R)-(3,4-Difluorophenyl)(phenyl)methyl]-7-hydroxy3,4,12,12a-tetrahydro-1H-[1,4]oxazino[3,4-c]pyrido[2,1-f ][1,2,4]-triazine-6,8-dione level at 15 mg/kg, po administered as single dose by LC-MS/MS analysis; assay type: ADME, organism-based; set-up: dose 15 mg/kg, route oral, time 0 - last; details: in vivo

COC(=O)OCOc1c2n(ccc1=O)N([C@@H](c1ccccc1)c1ccc(F)c(F)c1)[C@@H]1COCCN1C2=O
Cmax [1]: 397 ng/mL | remaining at 4 h, 1 µM [2]: 97.7% | remaining at 4 h, 1 µM [3]: 95.8% | F [4]: 29.9% | AUClast [5]: 2078 ng·h/mL | Ratio [6]: 3.7 | Ratio AUC [7]: 4.2 | Cmax [8]: 1476 ng/g | AUClast [9]: 8806 ng·h/g

COC(=O)OCOc1c2n(ccc1=O)N([C@H](c1ccccc1)c1ccc(F)c(F)c1)[C@@H]1COCCN1C2=O
Ratio AUC [10]: 3.2 | Cmax [11]: 2090 ng/mL | Ratio [12]: 2.1 | AUClast [13]: 30130 ng·h/g | F [14]: 56.9% | Cmax [15]: 4464 ng/g | AUClast [16]: 9448 ng·h/mL
